Results from paper PMC9254439 (Virologica Sinica, 2022).
pKd: −log10 of the molar value. Where no end group is shown, it is not given here.

Tests used:
[1] = target: SARS-CoV-2 spike monomer protein (Severe acute respiratory syndrome coronavirus 2, UniProt P0DTC2); assay: biochemical; assay type: binding
[2] = target: SARS-CoV-2 spike trimer protein (Severe acute respiratory syndrome coronavirus 2, UniProt P0DTC2); assay: biochemical; assay type: binding

Which results are given for NFWISPKLAFALGGGS [Spep-1]?
pKd [1]: 8.67; pKd [2]: 8.77
